Results: patent US4795758A, “5-[2-(pyrrolidin-1-yl)ethoxy]-p-cymene derivatives, the process for the preparation of the said derivatives and drugs in which the said derivatives are present” (priority 1987, dated 1989)
Structures can show the parent of a compound that is named as a salt. Where two headings read alike, the source gives them in different places.

What was measured:
[1] = tested on: isolated urethra of rabbits; assay: In vitro α-adrenolytic activity on isolated urethra; conditions: rabbit; negative log of molar concentration halving norepinephrine contraction-inducing activity
Source text: (§1) 2.1. - In vitro α-adrenolytic activity
(§2) This was studied on the ductus deferens of rats and on the urethra of rabbits.
(§3) Norepinephrine causes contractions of the isolated ductus deferens of rats and the isolated urethra of rabbits. The presence of α-blocking substances in a bath containing the organ antagonizes these contractions; the use of increasing concentrations of α-blocking substances makes it possible to calculate:
the pD'2 of the compounds on the urethra of rabbits, the pD'2 being the negative logarithm of that molar concentration of the product in the presence of which the contraction-inducing activity of norepinephrine is halved.

arterial pressure = assay: Urethral specificity in anesthetized dogs: arterial hypotension; assay type: in vivo; conditions: i.v., dose causing 20% arterial hypotension
Source text: (§4) The effect of products B 1007, B 1024, B 1125 and B 1134, injected intravenously, on the neurogenic urethral hypertension and the arterial pressure was investigated on anesthetized dogs.
(§5) α-Blocking substances antagonize these increases in urethral pressure as a function of dose and cause arterial hypotension through a blocking action on the vascular receptors.
(§6) The dose which causes a 50% inhibition of the effects of stimulation of the hypogastric nerve on the urethral pressure (ID50) and the dose which causes a 20% arterial hypotension (ED20) are calculated.

[2] = tested on: arterial hypertension induced by norepinephrine; assay: In vivo α-blocking activity in anesthetized rabbits: arterial pressure; conditions: Oryctolagus cuniculus, iv, norepinephrine-induced arterial pressure increase, read-out: ID50 with regard to arterial hypertension
Source text: (§7) The "in vivo" α-blocking activity in terms of the urethral and vascular pressures in anesthetized rabbits was investigated by intravenous administration of the products B 1007, B 1024, B 1058, B 1125 and B 1134.
(§8) The intravenous injection of norepinephrine causes a dose-dependent increase in the arterial and urethral pressures in rabbits. α-Blocking substances injected intravenously antagonize these pressure increases as a function of dose. The 50% inhibitory dose (ID50), defined as being the dose of product which causes a 50% […] in the effects of norepinephrine on the arterial and urethral pressures, is calculated.

[3] = tested on: toxicity of norepinephrine; assay: In vivo adrenolytic activity: protection against norepinephrine-induced death in rats; conditions: Rattus norvegicus, po; for responders at 50 mg/kg / responders at 25 mg/kg: 0.5 h, 30 min before i.v. norepinephrine 0.4 mg/kg; for responders at 50 mg/kg: 50 mg/kg p.o.; for responders at 25 mg/kg: 25 mg/kg p.o.
Protocol: Norepinephrine injected intravenously in high doses causes the death of 100% of the animals within 15 minutes of being injected. The cause of death is pulmonary edema due to the arterial hypertension induced by stimulation of the adrenergic receptors. The oral administration of α-adrenolytic substances before-hand enables the toxicity of norepinephrine to be reduced. The products are administered orally at times varying between 30 minutes and 6 hours before the intravenous injection (i.v.) of norepinephrine (0.4 mg/kg).

[4] = tested on: neurogenic urethral hypertension (stimulation of the hypogastric nerve); assay: Urethral specificity in anesthetized dogs: neurogenic urethral hypertension; assay type: in vivo; conditions: Canis lupus familiaris, iv, 50% inhibition of effect of hypogastric nerve stimulation on urethral pressure, read-out: Neurogenic urethral hypertension ID50
Source text: as §4
Electrical stimulation of the hypogastric nerve causes an increase in the urethral pressure by releasing norepinephrine from the sympathetic fibers of the nerve.
as §5, §6

[5] = tested on: urethral hypertension induced by norepinephrine; assay: In vivo α-blocking activity in anesthetized rabbits: urethral pressure; conditions: Oryctolagus cuniculus, iv, norepinephrine-induced urethral pressure increase, read-out: ID50 with regard to urethral hypertension
Source text: as §7, §8

[6] = Toxicity: 50% lethal dose in mice (p.o. and i.v.); conditions: mouse, in vivo
Source text: The following 50% lethal doses were obtained after oral administration (p.o.) and intravenous administration (i.v.) of the substances to mice.

[7] = molecular target: T1, isolated ductus deferens of rats (Rattus norvegicus, UniProt P43140); assay: In vitro α-adrenolytic activity on isolated ductus deferens; conditions: negative log of molar concentration requiring doubled norepinephrine concentration, read-out: pA2, α-blocking action towards norepinephrine on isolated ductus deferens (converted)
T1 construct: Norepinephrine causes contractions of the isolated ductus deferens of rats; from tissue; host or cells: isolated ductus deferens of rats
T1 sequence (P43140 1-466): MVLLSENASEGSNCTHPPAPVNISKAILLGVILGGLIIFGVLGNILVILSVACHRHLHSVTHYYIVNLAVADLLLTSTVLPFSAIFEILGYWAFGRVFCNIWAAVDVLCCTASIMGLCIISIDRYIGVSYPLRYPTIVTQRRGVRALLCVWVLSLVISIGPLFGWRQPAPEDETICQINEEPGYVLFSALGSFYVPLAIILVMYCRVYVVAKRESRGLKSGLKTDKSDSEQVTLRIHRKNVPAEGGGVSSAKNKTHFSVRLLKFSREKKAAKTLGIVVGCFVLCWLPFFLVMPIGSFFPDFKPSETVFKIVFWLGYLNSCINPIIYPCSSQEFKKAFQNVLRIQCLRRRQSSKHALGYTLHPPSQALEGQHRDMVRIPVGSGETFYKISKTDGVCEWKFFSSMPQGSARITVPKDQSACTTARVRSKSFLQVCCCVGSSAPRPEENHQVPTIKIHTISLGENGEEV
Source text: as §1, §2, §3
the pA2 of the compounds on the ductus deferens of rats, the pA2 being the negative logarithm of that molar concentration of the product in the presence of which the concentration of norepinephrine has to be doubled in order to obtain the same effect as in the absence of the product; and […]

[8] = intravenous, read-out: LD50 i.v.

| SMILES | pD'2, α-blocking action towards norepinephrine on isolated urethra [1] | Arterial hypotension ED20 (arterial pressure) [mg/kg] | ED50 [2] [mg/kg] | responders at 50 mg/kg [3] [%] | ED50 [4] [mg/kg] | ED50 [5] [mg/kg] | LD50 [6, 8] [mg/kg] | LD50 ([6]; oral, read-out: LD50 p.o.) [mg/kg] | Kb [7] [nM] | responders at 25 mg/kg [3] [%] | responders at 100 mg/kg ([3]; 100 mg/kg p.o., 4 h before i.v. norepinephrine 0.4 mg/kg) [%] |
| --- | --- | --- | --- | --- | --- | --- | --- | --- | --- | --- | --- |
| Cc1ccc(C(C)C)c(OCCN2CCCC2)c1 [B 1007, 3-[2-(pyrrolidin-1-yl)ethoxy]-p-cymene hydrochloride] | 6.88 | 2 | 7.63 | 60 | 0.35 | 0.34 | 75 | 330 | 182 | – | – |
| CC(=O)Oc1cc(C(C)C)c(OCCN2CCCC2)cc1C [B 1024, 2-acetoxy-5-[2-(pyrrolidin-1-yl)ethoxy]-p-cymene hydrochloride] | 6.38 | 8 | 4.14 | – | 0.07 | 0.23 | 18 | 100 | 105 | 70 | – |
| Cc1cc(OCCN2CCCC2)c(C(C)C)cc1O [B 1058, 2-hydroxy-5-[2-(pyrrolidin-1-yl)ethoxy]-p-cymene hydrochloride] | 6.69 | – | 1.22 | 90 | – | 0.13 | 17 | 80 | 66.1 | – | – |
| CCC(=O)Oc1cc(C(C)C)c(OCCN2CCCC2)cc1C [B 1125] | 6.25 | 12 | 5.95 | – | 0.09 | 0.36 | – | ~300 | 72.4 | 60 | – |
| CCCCCC(=O)Oc1cc(C(C)C)c(OCCN2CCCC2)cc1C [B 1131] | 6.12 | – | – | 60 | – | – | – | ~550 | 105 | – | – |
| CCCC(=O)Oc1cc(C(C)C)c(OCCN2CCCC2)cc1C [B 1132, 2-butyryloxy-5-[2-(pyrrolidin-1-yl)-ethoxy]-p-cymene hydrochloride] | 6.0 | – | – | 90 | – | – | – | ~500 | 44.7 | – | – |
| CCCCCCCCCC(=O)Oc1cc(C(C)C)c(OCCN2CCCC2)cc1C [B 1134] | 6.23 | 30 | 6.17 | – | 0.11 | 0.48 | 36 | ~400 | 269 | – | 100 |
| CC(=O)Oc1cc(C(C)C)c(OCCN(C)C)cc1C [Thymoxamine, reference compound] | 7.03 | 0.27 | 2.72 | 80 | 0.09 | 0.5 | 72.5 | 300 | 56.2 | – | – |
